# Results taken from ChEMBL document CHEMBL4196007, “Design, synthesis and biological evaluation of novel 4-aminoquinazolines as dual target inhibitors of EGFR-PI3Kα” (Eur J Med Chem, 2018).
# Activity calls are given as the source filed them. The rule behind the calls is not given here.
# Assays:
# [1] = target: Phosphatidylinositol 4,5-bisphosphate 3-kinase catalytic subunit beta isoform (Homo sapiens, UniProt P42338); assay: Inhibition of PI3K p110beta (unknown origin) using PIP2 as substrate by ELISA
# Chain of Phosphatidylinositol 4,5-bisphosphate 3-kinase catalytic subunit beta isoform (P42338 whole entry, canonical isoform): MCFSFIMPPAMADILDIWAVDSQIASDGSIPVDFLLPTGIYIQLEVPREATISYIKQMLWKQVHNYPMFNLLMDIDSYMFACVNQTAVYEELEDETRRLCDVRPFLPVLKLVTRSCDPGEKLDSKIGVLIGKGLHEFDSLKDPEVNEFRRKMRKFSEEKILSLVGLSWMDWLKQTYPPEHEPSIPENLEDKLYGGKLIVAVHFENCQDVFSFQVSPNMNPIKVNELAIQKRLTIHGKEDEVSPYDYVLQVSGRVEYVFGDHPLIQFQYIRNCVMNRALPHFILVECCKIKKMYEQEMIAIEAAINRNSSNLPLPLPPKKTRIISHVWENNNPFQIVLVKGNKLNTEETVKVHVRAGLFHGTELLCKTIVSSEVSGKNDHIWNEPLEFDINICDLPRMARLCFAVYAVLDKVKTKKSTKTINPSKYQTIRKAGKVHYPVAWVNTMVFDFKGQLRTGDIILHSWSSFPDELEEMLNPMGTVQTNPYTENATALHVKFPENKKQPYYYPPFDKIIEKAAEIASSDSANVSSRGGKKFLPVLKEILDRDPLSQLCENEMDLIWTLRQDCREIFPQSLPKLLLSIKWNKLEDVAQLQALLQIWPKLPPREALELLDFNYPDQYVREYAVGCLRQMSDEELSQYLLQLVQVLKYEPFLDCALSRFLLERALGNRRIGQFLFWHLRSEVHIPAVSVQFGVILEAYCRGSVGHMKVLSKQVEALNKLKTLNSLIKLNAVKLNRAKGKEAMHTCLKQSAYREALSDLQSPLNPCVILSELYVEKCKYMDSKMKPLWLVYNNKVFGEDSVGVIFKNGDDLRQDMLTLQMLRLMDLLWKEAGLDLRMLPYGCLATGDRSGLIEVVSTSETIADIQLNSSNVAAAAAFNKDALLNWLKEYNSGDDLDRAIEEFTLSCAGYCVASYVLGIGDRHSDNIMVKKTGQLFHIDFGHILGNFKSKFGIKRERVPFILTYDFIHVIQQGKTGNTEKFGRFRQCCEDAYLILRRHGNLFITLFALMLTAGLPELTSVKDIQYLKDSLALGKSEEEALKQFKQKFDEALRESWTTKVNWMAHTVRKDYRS
# [2] = target: T1, Phosphatidylinositol 4,5-bisphosphate 3-kinase catalytic subunit delta isoform (Homo sapiens, UniProt O00329); assay: Inhibition of PI3K p110delta (unknown origin) using PIP2 as substrate by ELISA
# T1 sequence (O00329 whole entry): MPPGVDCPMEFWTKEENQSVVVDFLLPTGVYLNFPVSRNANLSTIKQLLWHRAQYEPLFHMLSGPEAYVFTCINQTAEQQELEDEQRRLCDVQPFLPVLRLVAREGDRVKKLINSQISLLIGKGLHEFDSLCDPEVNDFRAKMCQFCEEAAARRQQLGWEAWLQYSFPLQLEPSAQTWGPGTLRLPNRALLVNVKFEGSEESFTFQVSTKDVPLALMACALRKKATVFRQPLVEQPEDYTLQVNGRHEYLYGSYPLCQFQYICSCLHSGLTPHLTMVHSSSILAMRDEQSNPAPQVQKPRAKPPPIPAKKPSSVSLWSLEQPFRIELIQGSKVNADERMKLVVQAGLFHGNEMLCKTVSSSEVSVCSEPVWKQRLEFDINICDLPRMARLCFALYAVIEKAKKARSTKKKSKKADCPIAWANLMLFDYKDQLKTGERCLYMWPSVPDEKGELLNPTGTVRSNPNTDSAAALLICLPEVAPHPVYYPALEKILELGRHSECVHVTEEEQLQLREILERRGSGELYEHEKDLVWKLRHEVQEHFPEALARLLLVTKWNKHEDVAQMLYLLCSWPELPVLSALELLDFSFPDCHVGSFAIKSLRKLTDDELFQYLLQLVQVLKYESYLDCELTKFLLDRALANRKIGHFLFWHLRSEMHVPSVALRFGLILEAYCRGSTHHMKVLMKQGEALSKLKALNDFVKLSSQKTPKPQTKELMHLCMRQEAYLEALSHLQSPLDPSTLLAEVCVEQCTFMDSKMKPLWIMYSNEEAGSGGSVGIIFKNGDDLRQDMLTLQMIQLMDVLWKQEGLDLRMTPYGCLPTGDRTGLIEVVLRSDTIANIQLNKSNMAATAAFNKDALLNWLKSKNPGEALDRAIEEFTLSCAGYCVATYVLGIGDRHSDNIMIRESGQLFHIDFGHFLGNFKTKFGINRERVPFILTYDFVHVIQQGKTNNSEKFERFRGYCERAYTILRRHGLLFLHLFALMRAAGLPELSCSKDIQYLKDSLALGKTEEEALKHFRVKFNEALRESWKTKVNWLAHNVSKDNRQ
# [3] = system: HCT-116; assay: Cytotoxicity against human HCT116 cells after 72 hrs by SRB assay; format: functional, cell-based; details: HCT-116, 72 h
# [4] = system: BT-549; assay: Inhibition of colony formation in human BT549 cells assessed as colony formation rate at 2.5 uM after 2 weeks by crystal violet staining-based assay relative to control; format: functional; set-up: scale not given: the % may be the effect or the level left
# [5] = system: BT-549; assay: Induction of apoptosis in human BT549 cells assessed as late apoptotic cells at 2.5 uM by Annexin V-FITC/propidium iodide staining-based flow cytometric analysis relative to control; format: functional
# [6] = system: BT-549; assay: Cell cycle arrest in human BT549 cells assessed as accumulation of cells at G1 phase at 1 uM after 24 hrs by propidium iodide staining-based flow cytometric analysis (reference value: 55.93%); format: functional
# [7] = system: BT-549; assay: Cell cycle arrest in human BT549 cells assessed as accumulation of cells at G2 phase at 1 uM after 24 hrs by propidium iodide staining-based flow cytometric analysis (reference value: 18.96%); format: functional
# [8] = system: BT-549; assay: Cell cycle arrest in human BT549 cells assessed as accumulation of cells at G1 phase at 2.5 uM after 24 hrs by propidium iodide staining-based flow cytometric analysis (reference value: 55.93%); format: functional
# [9] = system: BT-549; assay: Induction of apoptosis in human BT549 cells assessed as early apoptotic cells at 1 uM by Annexin V-FITC/propidium iodide staining-based flow cytometric analysis relative to control; format: functional
# [10] = system: BT-549; assay: Induction of apoptosis in human BT549 cells assessed as chromatin condensation at 1 to 5 uM after 24 hrs by DAPI staining-based fluorescence microscopic analysis; format: functional, cell-based
# [11] = system: BT-549; assay: Cell cycle arrest in human BT549 cells assessed as accumulation of cells at G2 phase at 2.5 uM after 24 hrs by propidium iodide staining-based flow cytometric analysis (reference value: 18.96%); format: functional
# [12] = system: BT-549; assay: Inhibition of colony formation in human BT549 cells assessed as colony formation rate at 5 uM after 2 weeks by crystal violet staining-based assay relative to control; format: functional; set-up: scale not given: the % may be the effect or the level left
# [13] = system: BT-549; assay: Cell cycle arrest in human BT549 cells assessed as accumulation of cells at G1 phase after 24 hrs by propidium iodide staining-based flow cytometric analysis; format: functional
# [14] = system: BT-549; assay: Inhibition of colony formation in human BT549 cells after 2 weeks by crystal violet staining-based assay; format: functional, cell-based
# [15] = system: BT-549; assay: Induction of apoptosis in human BT549 cells assessed as nuclear fragmentation at 1 to 5 uM after 24 hrs by DAPI staining-based fluorescence microscopic analysis; format: functional, cell-based
# [16] = system: BT-549; assay: Induction of apoptosis in human BT549 cells assessed as late apoptotic cells at 1 uM by Annexin V-FITC/propidium iodide staining-based flow cytometric analysis relative to control; format: functional
# [17] = system: BT-549; assay: Cell cycle arrest in human BT549 cells assessed as accumulation of cells at G2 phase at 5 uM after 24 hrs by propidium iodide staining-based flow cytometric analysis (reference value: 18.96%); format: functional
# [18] = target: Phosphatidylinositol 4,5-bisphosphate 3-kinase catalytic subunit alpha isoform (Homo sapiens, UniProt P42336); assay: Inhibition of PI3K p110alpha (unknown origin) using PIP2 as substrate by ELISA
# Chain of Phosphatidylinositol 4,5-bisphosphate 3-kinase catalytic subunit alpha isoform (P42336 whole entry, canonical isoform): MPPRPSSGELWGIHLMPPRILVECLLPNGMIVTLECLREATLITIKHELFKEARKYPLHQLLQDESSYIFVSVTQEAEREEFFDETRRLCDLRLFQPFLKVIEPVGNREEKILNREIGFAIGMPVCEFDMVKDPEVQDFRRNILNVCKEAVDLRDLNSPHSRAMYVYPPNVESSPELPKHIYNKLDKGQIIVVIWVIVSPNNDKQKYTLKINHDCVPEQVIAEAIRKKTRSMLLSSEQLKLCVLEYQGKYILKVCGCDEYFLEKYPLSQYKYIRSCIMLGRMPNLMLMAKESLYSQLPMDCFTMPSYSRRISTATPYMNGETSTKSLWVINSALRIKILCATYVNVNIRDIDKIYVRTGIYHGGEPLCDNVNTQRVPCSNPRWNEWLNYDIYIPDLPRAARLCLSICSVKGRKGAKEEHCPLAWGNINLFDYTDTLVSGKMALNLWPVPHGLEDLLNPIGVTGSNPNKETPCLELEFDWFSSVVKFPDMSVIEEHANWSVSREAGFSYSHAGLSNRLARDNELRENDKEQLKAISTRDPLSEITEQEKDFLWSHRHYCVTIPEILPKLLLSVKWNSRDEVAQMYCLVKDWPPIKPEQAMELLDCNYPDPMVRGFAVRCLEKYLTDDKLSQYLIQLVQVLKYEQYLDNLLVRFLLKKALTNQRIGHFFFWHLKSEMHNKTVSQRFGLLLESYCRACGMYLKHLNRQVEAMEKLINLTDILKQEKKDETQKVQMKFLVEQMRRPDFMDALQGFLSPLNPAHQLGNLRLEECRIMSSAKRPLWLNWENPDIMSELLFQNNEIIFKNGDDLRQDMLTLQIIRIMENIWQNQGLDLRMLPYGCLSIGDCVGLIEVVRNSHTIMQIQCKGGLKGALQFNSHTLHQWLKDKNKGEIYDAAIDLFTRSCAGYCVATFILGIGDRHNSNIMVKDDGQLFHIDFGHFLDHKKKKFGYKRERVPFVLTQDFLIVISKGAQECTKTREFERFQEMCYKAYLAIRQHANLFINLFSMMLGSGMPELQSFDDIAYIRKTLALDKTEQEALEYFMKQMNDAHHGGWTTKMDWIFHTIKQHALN
# [19] = system: BT-549; assay: Cytotoxicity against human BT549 cells after 72 hrs by SRB assay; format: functional, cell-based; details: BT-549, 72 h
# [20] = system: BT-549; assay: Induction of apoptosis in human BT549 cells assessed as early apoptotic cells at 2.5 uM by Annexin V-FITC/propidium iodide staining-based flow cytometric analysis relative to control; format: functional
# [21] = system: BT-549; assay: Induction of apoptosis in human BT549 cells assessed as late apoptotic cells at 5 uM by Annexin V-FITC/propidium iodide staining-based flow cytometric analysis relative to control; format: functional
# [22] = target: Phosphatidylinositol 4,5-bisphosphate 3-kinase catalytic subunit gamma isoform (Homo sapiens, UniProt P48736); assay: Inhibition of PI3K p110gamma (unknown origin) using PIP2 as substrate by ELISA
# Chain of Phosphatidylinositol 4,5-bisphosphate 3-kinase catalytic subunit gamma isoform (P48736 whole entry, canonical isoform): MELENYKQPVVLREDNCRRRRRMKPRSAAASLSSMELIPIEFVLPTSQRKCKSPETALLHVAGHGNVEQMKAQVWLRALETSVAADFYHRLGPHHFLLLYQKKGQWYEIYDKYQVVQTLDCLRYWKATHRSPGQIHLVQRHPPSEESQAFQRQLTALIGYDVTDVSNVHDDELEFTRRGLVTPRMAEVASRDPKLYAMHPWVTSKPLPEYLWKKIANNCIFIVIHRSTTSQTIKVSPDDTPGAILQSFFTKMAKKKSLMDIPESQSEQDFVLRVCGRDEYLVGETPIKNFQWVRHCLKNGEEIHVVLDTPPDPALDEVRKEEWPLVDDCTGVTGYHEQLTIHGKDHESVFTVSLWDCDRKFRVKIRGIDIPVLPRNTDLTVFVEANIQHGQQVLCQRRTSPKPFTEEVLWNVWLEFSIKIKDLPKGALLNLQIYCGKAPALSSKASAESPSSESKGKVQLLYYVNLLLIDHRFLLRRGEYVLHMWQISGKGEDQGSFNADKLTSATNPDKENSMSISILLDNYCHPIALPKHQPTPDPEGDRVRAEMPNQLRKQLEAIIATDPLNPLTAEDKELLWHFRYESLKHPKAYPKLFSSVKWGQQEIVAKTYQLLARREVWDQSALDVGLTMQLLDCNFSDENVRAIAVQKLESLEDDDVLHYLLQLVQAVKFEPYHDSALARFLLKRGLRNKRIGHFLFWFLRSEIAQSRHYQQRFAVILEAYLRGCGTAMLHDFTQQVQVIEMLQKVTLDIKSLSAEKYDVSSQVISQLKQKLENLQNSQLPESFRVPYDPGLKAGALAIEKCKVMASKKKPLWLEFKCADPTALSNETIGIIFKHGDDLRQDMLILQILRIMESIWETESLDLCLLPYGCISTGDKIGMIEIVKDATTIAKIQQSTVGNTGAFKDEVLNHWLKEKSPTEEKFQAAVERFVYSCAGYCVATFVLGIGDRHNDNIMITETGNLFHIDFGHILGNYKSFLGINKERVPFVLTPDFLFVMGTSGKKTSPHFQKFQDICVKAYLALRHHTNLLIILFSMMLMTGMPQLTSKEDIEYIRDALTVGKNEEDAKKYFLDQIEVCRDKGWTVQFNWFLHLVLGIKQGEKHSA
# [23] = system: BT-549; assay: Cell cycle arrest in human BT549 cells assessed as accumulation of cells at S phase at 1 uM after 24 hrs by propidium iodide staining-based flow cytometric analysis (reference value: 25.10%); format: functional
# [24] = system: BT-549; assay: Induction of apoptosis in human BT549 cells assessed as early apoptotic cells at 5 uM by Annexin V-FITC/propidium iodide staining-based flow cytometric analysis relative to control; format: functional
# [25] = system: MCF7; assay: Cytotoxicity against human MCF7 cells after 72 hrs by SRB assay; format: functional, cell-based; details: MCF7, 72 h
# [26] = system: SK-HEP1; assay: Cytotoxicity against human SKHEP1 cells after 72 hrs by SRB assay; format: functional, cell-based; details: SK-HEP1, 72 h
# [27] = species: Homo sapiens; assay: Inhibition of PI3K in human BT549 cells assessed as decrease in Akt phosphorylation at Ser473 by Western blot analysis; format: cell-based
# [28] = system: BT-549; assay: Cell cycle arrest in human BT549 cells assessed as accumulation of cells at S phase at 2.5 uM after 24 hrs by propidium iodide staining-based flow cytometric analysis (reference value: 25.10%); format: functional
# [29] = system: A549; assay: Cytotoxicity against human A549 cells after 72 hrs by SRB assay; format: functional, cell-based; details: A549, 72 h
# [30] = system: BT-549; assay: Cell cycle arrest in human BT549 cells assessed as accumulation of cells at S phase at 5 uM after 24 hrs by propidium iodide staining-based flow cytometric analysis (reference value: 25.10%); format: functional
# [31] = system: BT-549; assay: Cell cycle arrest in human BT549 cells assessed as accumulation of cells at G1 phase at 5 uM after 24 hrs by propidium iodide staining-based flow cytometric analysis (reference value: 55.93%); format: functional
# [32] = system: SNU-638; assay: Cytotoxicity against human SNU638 cells after 72 hrs by SRB assay; format: functional, cell-based; details: SNU-638, 72 h
smiles,measurement,setting,value
CCS(=O)(=O)Nc1cc(-c2ccc3ncnc(Nc4ccc(F)c(Cl)c4)c3c2)cnc1OC,IC50,[1],9.41 µM
same,IC50,[2],8.67 µM
same,IC50,[3],5.6 µM
same,Activity,[4],55.6%
same,Activity,[5],2.05%
same,Activity,[6],69.31%
same,Activity,[7],24.16%
same,Activity,[8],75.36%
same,Activity,[9],30.52%
same,Activity,[10],Active
same,Activity,[11],17.77%
same,Activity,[12],25.7%
same,Activity,[13],Dose-dependent effect
same,inhibition,[14],Dose-dependent effect
same,Activity,[15],Active
same,Activity,[16],1.79%
same,Activity,[17],18.37%
same,IC50,[18],0.317 µM
same,IC50,[19],1.02 µM
same,Activity,[20],56.69%
same,Activity,[21],2.27%
same,IC50,[22],3.56 µM
same,Activity,[23],6.52%
same,Activity,[24],54.71%
same,IC50,[25],5.59 µM
same,IC50,[26],6.1 µM
same,inhibition,[27],Dose-dependent effect
same,Activity,[28],6.86%
same,IC50,[29],8.23 µM
same,Activity,[30],0.92%
same,Activity,[31],80.7%
same,IC50,[32],4.1 µM
